According to ChEMBL document CHEMBL4184333, “Expanding Benzoxazole-Based Inosine 5'-Monophosphate Dehydrogenase (IMPDH) Inhibitor Structure-Activity As Potential Antituberculosis Agents” (J Med Chem, 2018):
In brackets after ≈: the same amount, converted by molar mass.

System: Mycobacterium tuberculosis
Assay: Antitubercular activity against Mycobacterium tuberculosis SRMV2.6 harboring IMPDH2 Y487C mutant using 7H9/ADC/Tween medium after 1 week in absence of guanine by Alamar blue assay
Type: functional

SMILES	MIC
COc1ccc(OC(C)C(=O)Nc2ccc3oc(-c4ccncc4)nc3c2)cc1 (centres undefined)	>100 µM
C[C@H](Nc1cccc(F)c1F)C(=O)Nc1ccc2oc(-c3ccc(C#N)cc3)nc2c1	>100 µM
CCOC(=O)COc1ccc(-c2nc3cc(NC(=O)[C@H](C)Oc4cccc(Cl)c4Cl)ccc3o2)cc1	3.1 µM (≈ 1.64 µg/mL)
C[C@H](Oc1cccc(Cl)c1Cl)C(=O)Nc1ccc2oc(-c3ccc(C(=O)O)cc3)nc2c1	25 µM (≈ 11.8 µg/mL)
